Structures can show the parent of a compound that is named as a salt.

In one experiment the test system is TNF-α production in THP-1 cells. Put plainly: Inhibition of TNF-α production in THP-1 cells. Format: cell-based. The conditions noted are these: Homo sapiens; TNF-α levels from LPS (10 μg/mL) stimulated THP-1 cells, 100 nM test compound, 20 hours, vs 0.1% DMSO control. On the procedure:
THP-1 cells, a human monocytic cell line, were maintained in RPMI 1640 (Sigma R8758) supplemented with penicillin (50 U/ml), streptomycin (50 μg/ml) and 10% fetal bovine serum (Moregate BioTech.) at 37° C., 5% CO2 in a humidified incubator. Initial stock solutions of test compounds were made in DMSO. All cells, reagents and test compounds were diluted into culture media. THP-1 cells (1×10^5 cells/well final) and lipopolysaccharide (LPS; 10 μg/mL final; Sigma L-4005, from E. coli serotype 055:B5) were added to 96 well polypropylene culture plates (Sumilon, MS-8196F5; sterile) containing test compound or 0.1% DMSO vehicle. The cell mixture was incubated for 20 hours in a humidified incubator at 37° C., 5% CO2. The culture supernatants were harvested and TNF-α levels from LPS stimulated cells in the presence of 100 nM test compound was calculated compared with control cells stimulated in the presence of 0.1% DMSO.
Regarding `Cc1ccccc1-n1nc(-c2c(-c3ccc(F)cc3)nn3c2OCC3)ccc1=O` [Example 125, 6-[6-(4-fluorophenyl)-2,3-dihydropyrazolo[5,1-b][1,3]oxazol-7-yl]-2-(2-methylphenyl)pyridazin-3(2H)-one], the inhibition at 0.1 µM turned out to be 83%. `Cc1ccccc1-n1nc(-c2c(-c3ccc(F)cc3)nn3c2NCC(C(=O)NC2CC2)C3)ccc1=O` (stereo not shown) [Example 57, N-cyclopropyl-2-(4-fluorophenyl)-3-[1-(2-methylphenyl)-6-oxo-1,6-dihydropyridazin-3-yl]-4,5,6,7-tetrahydropyrazolo[1,5-a]pyrimidine-6-carboxamide] yielded an inhibition at 0.1 µM of 97%. On the same count and under the same terms, as for `Cc1ccccc1-n1nc(-c2c(-c3ccc(F)cc3)nn3c2NCC(F)(F)C3)ccc1=O` [Example 85, 6-[6,6-Difluoro-2-(4-fluorophenyl)-4,5,6,7-tetrahydropyrazolo[1,5-a]pyrimidin-3-yl]-2-(2-methylphenyl)pyridazin-3(2H)-one], the figure is 88%; as for `Cc1ccccc1-n1nc(-c2c(-c3ccc(F)cc3)nn3c2NC(CO)CC3)ccc1=O` (stereo in doubt) [Example 124, 6-[(5S)-2-(4-Fluorophenyl)-5-(hydroxymethyl)-4,5,6,7-tetrahydropyrazolo[1,5-a]pyrimidin-3-yl]-2-(2-methylphenyl)pyridazin-3(2H)-one], 94%; as for `Cc1ccccc1-n1nc(-c2c(-c3ccc(F)cc3F)nn3c2NCC(CNC(C)(C)C)C3)ccc1=O` (stereo not shown) [Example 98, 6-{6-[(tert-Butylamino)methyl]-2-(2,4-difluorophenyl)-4,5,6,7-tetrahydropyrazolo[1,5-a]pyrimidin-3-yl}-2-(2-methylphenyl)pyridazin-3(2H)-one], 86%. In turn, `Cc1ccccc1-n1nc(-c2c(-c3ccc(F)cc3F)nn3c2NCC(CO)C3)ccc1=O` (stereo not shown) [Example 37, 6-[2-(2,4-Difluorophenyl)-6-(hydroxymethyl)-4,5,6,7-tetrahydropyrazolo[1,5-a]pyrimidin-3-yl]-2-(2-methylphenyl)pyridazin-3(2H)-one] came in with an inhibition at 0.1 µM of 94%. With `Cc1ccccc1-n1nc(-c2c(-c3ccc(F)cc3F)nn3cc(CN(C)C)cnc23)ccc1=O` [Example 2, 6-{2-(2,4-Difluorophenyl)-6-[(dimethylamino)methyl]pyrazolo[1,5-a]pyrimidin-3-yl}-2-(2-methylphenyl)-3(2H)-pyridazinone], the inhibition at 0.1 µM came out at 98%. The same measure, in the same setting: to `Cc1ccccc1-n1nc(-c2c(-c3ccccc3)nn3c2CN(C(C)C)CC3)ccc1=O` [Example 130, 6-(5-isopropyl-2-phenyl-4,5,6,7-tetrahydropyrazolo[1,5-a]pyrazin-3-yl)-2-(2-methylphenyl)pyridazin-3(2H)-one] belongs 70%; to `CC(=O)N1CCC2(CC1)CNc1c(-c3ccc(=O)n(-c4ccccc4C)n3)c(-c3ccc(F)cc3)nn1C2` [Example 107, 6-[1-acetyl-2′-(4-fluorophenyl)-4′,5′-dihydrospiro[piperidine-4,6′-pyrazolo[1,5-a]pyrimidin]-3′-yl]-2-(2-methylphenyl)pyridazin-3(2H)-one], 90%; to `Cc1ccccc1-n1nc(-c2c(-c3ccc(F)cc3)nn3c2NCC(CO)(CO)C3)ccc1=O` [Example 35, 6-[2-(4-Fluorophenyl)-6,6-bis(hydroxymethyl)-4,5,6,7-tetrahydropyrazolo[1,5-a]pyrimidin-3-yl]-2-(2-methylphenyl)pyridazin-3(2H)-one], 90%. Still for that read-out and setting: to `Cc1ccccc1-n1nc(-c2c(-c3ccc(F)cc3)nn3c2NCC(CN2CCN(C)CC2)C3)ccc1=O` (stereo not shown) [Example 47, 6-(2-(4-Fluorophenyl)-6-[(4-methylpiperazin-1-yl)methyl]-4,5,6,7-tetrahydropyrazolo[1,5-a]pyrimidin-3-yl)-2-(2-methylphenyl)pyridazin-3(2H)-one dihydrochloride] belongs 95%; to `CCN1CCn2nc(-c3ccc(F)cc3)c(-c3ccc(=O)n(-c4ccccc4C)n3)c21` [Example 6, 6-[1-Ethyl-6-(4-fluorophenyl)-2,3-dihydro-1H-imidazo[1,2-b]pyrazol-7-yl]-2-(2-methylphenyl)-3(2H)-pyridazinone], 80%. The same measure, in the same setting: to `Cc1ccccc1-n1nc(-c2c(-c3ccc(F)cc3)nn3c2N[C@H](CO)CC3)ccc1=O` [Example 123, 6-[(5S)-2-(4-fluorophenyl)-5-(hydroxymethyl)-4,5,6,7-tetrahydropyrazolo[1,5-a]pyrimidin-3-yl]-2-(2-methylphenyl)pyridazin-3(2H)-one] belongs 94%; to `Cc1ccccc1N1N=C(c2c(-c3ccc(F)cc3F)nn3c2NCC(CN(C)C)C3)CCC1=O` (stereo not shown) [Example 55, 6-{2-(2,4-difluorophenyl)-6-[(dimethylamino)methyl]-4,5,6,7-tetrahydropyrazolo[1,5-a]pyrimidin-3-yl}-2-(2-methylphenyl)-4,5-dihydropyridazin-3(2H)-one], 98%. `Cc1ccccc1-n1nc(-c2c(-c3ccc(F)cc3F)nn3c2NCC(CN(C)C)C3)ccc1=O` (stereo not shown) [Example 1, 6-{2-(2,4-difluorophenyl)-6-[(dimethylamino)methyl]-4,5,6,7-tetrahydropyrazolo[1,5-a]pyrimidin-3-yl}-2-(2-methylphenyl)-3(2H)-pyridazinone] displayed an inhibition at 0.1 µM of 88%.

The subject of a further experiment is adjuvant-induced arthritis rats. As to the kind of experiment: Inhibition of hind paw swelling in adjuvant-induced arthritis rats. Format: in vivo, Lewis rats. Particulars: Rattus norvegicus, po, 600 h, dose 0.3 mg/kg orally once a day from days 15 to 24, left hind paw volume on day 25, read-out: % inhibition of vehicle-treated rats. The method, then:
Arthritis was induced by injection of 0.5 mg of Mycobacterium tuberculosis (Difco Laboratories, Detroit, Mich.) in 50 μL of liquid paraffin into the right hind footpad of female Lewis rats aged 7 weeks (day 0). Normal untreated rats were used as negative controls. Animals were randomized and grouped (n≧5) for drug treatment based on an increase of left hind paw volume and body weight on day 15. Test compounds were suspended in vehicle (0.5% methylcellulose) and orally administered once a day from days 15 to 24. The volume of the left hind paw was measured on day 25 by a water displacement method using a plethymometer for rats (MK-550; Muromachi Kikai Co., Ltd., Tokyo, Japan).
Take `Cc1ccccc1-n1nc(-c2c(-c3ccc(F)cc3F)nn3c2NCC(CN(C)C)C3)ccc1=O` (stereo not shown) [Example 1, 6-{2-(2,4-difluorophenyl)-6-[(dimethylamino)methyl]-4,5,6,7-tetrahydropyrazolo[1,5-a]pyrimidin-3-yl}-2-(2-methylphenyl)-3(2H)-pyridazinone]: the inhibition in vivo at 0.3 mg/kg was found to be 51.2%.

The same experiment, now with this note: Rattus norvegicus, po, 600 h, dose 0.5 mg/kg orally once a day from days 15 to 24, left hind paw volume on day 25, read-out: % inhibition of vehicle-treated rats.
As to `Cc1ccccc1-n1nc(-c2c(-c3ccc(F)cc3)nn3c2NC[C@@H](O)C3)ccc1=O` [Example 100, 6-[(6R)-2-(4-Fluorophenyl)-6-hydroxy-4,5,6,7-tetrahydropyrazolo[1,5-a]pyrimidin-3-yl]-2-(2-methylphenyl)pyridazin-3(2H)-one], the inhibition in vivo at 0.5 mg/kg stood at 40.2%.

Staying with this experiment, now noted: Rattus norvegicus, po, 600 h, dose 1 mg/kg orally once a day from days 15 to 24, left hind paw volume on day 25, read-out: % inhibition of vehicle-treated rats.
With `Cc1ccccc1-n1nc(-c2c(-c3ccc(F)cc3)nn3c2NCC(CO)C3)ccc1=O` (stereo not shown) [Example 3, 6-[2-(4-Fluorophenyl)-6-(hydroxymethyl)-4,5,6,7-tetrahydropyrazolo[1,5-a]pyrimidin-3-yl]-2-(2-methylphenyl)-3(2H)-pyridazinone], the inhibition in vivo at 1 mg/kg is 56.4%. For `Cc1ccccc1-n1nc(-c2c(-c3ccc(F)cc3)nn3c2NCC2(CCOCC2)C3)ccc1=O` [Example 63, 6-[2′-(4-Fluorophenyl)-2,3,4′,5,5′,6-hexahydrospiro[pyran-4,6′-pyrazolo[1,5-a]pyrimidin]-3′-yl]-2-(2-methylphenyl)pyridazin-3(2H)-one], the inhibition in vivo at 1 mg/kg turned out to be 39.5%.

For `Cc1ccccc1-n1nc(-c2c(-c3ccc(F)cc3)nn3c2NC(CO)CC3)ccc1=O` (stereo in doubt) [Example 124, 6-[(5S)-2-(4-Fluorophenyl)-5-(hydroxymethyl)-4,5,6,7-tetrahydropyrazolo[1,5-a]pyrimidin-3-yl]-2-(2-methylphenyl)pyridazin-3(2H)-one], the inhibition in vivo at 1 mg/kg turned out to be 50.6%.

Turning to `Cc1ccccc1-n1nc(-c2c(-c3ccc(F)cc3)nn3c2NCC2(C3)OCCO2)ccc1=O` [Example 86, 6-[2′-(4-Fluorophenyl)-4′,5′-dihydrospiro[1,3-dioxolane-2,6′-pyrazolo[1,5-a]pyrimidin]-3′-yl]-2-(2-methylphenyl)pyridazin-3(2H)-one], the inhibition in vivo at 1 mg/kg came to 48.1%.

For `Cc1ccccc1-n1nc(-c2c(-c3ccc(F)cc3)nn3c2NCC(O)C3)ccc1=O` (stereo not shown) [Example 18, 6-[2-(4-Fluorophenyl)-6-hydroxy-4,5,6,7-tetrahydropyrazolo[1,5-a]pyrimidin-3-yl]-2-(2-methylphenyl)-3(2H)-pyridazinone], the inhibition in vivo at 1 mg/kg worked out at 46.1%. Same read-out and setting: as for `Cc1ccccc1-n1nc(-c2c(-c3ccc(F)cc3F)nn3c2NCC(CO)C3)ccc1=O` (stereo not shown) [Example 37, 6-[2-(2,4-Difluorophenyl)-6-(hydroxymethyl)-4,5,6,7-tetrahydropyrazolo[1,5-a]pyrimidin-3-yl]-2-(2-methylphenyl)pyridazin-3(2H)-one], the figure is 63.6%; as for `Cc1ccccc1-n1nc(-c2c(-c3ccc(F)cc3)nn3c2NCC(C)(C)C3)ccc1=O` [Example 132, 6-[2-(4-Fluorophenyl)-6,6-dimethyl-4,5,6,7-teterahydropyrazolo[1,5-a]pyrimidin-3-yl]-2-(2-methylphenyl)pyridazin-3(2H)-one], 60.4%. Still for that read-out and setting: to `Cc1ccccc1-n1nc(-c2c(-c3ccc(F)cc3)nn3c2N[C@H](CO)CC3)ccc1=O` [Example 123, 6-[(5S)-2-(4-fluorophenyl)-5-(hydroxymethyl)-4,5,6,7-tetrahydropyrazolo[1,5-a]pyrimidin-3-yl]-2-(2-methylphenyl)pyridazin-3(2H)-one] belongs 62.3%.

As a reminder, the inhibition is the drop in the measured response relative to a control, in per cent. Lower therefore signals a response near the control.

These data come from US20090042856A1, “PYRIDAZINONE DERIVATIVES USED FOR THE TREATMENT OF PAIN” (Astellas Pharma Inc, priority 2005, published 2009).
